The source of these data is publication PMC3795068, “Functional Evolution of a Multigene Family: Orthologous and Paralogous Pheromone Receptor Genes in the Turnip Moth, Agrotis segetum” (PLoS ONE, 2013).

Common to all, as to experiment: two-electrode voltage clamp, Xenopus oocytes, inward current
What all share (assay type): cell-based
In general terms: Two-electrode voltage clamp holds a large cell at a set potential and records current.

In test [1] the target is T1, AsegOR9 (Agrotis segetum, UniProt U5KJQ9).
T1 construct: full-length ORF, 433 aa, pCS2+ cRNA co-injected with Orco (473 aa) cRNA in Xenopus laevis oocytes; with Odorant receptor co-receptor (Orco)
T1 sequence (U5KJQ9 1-433): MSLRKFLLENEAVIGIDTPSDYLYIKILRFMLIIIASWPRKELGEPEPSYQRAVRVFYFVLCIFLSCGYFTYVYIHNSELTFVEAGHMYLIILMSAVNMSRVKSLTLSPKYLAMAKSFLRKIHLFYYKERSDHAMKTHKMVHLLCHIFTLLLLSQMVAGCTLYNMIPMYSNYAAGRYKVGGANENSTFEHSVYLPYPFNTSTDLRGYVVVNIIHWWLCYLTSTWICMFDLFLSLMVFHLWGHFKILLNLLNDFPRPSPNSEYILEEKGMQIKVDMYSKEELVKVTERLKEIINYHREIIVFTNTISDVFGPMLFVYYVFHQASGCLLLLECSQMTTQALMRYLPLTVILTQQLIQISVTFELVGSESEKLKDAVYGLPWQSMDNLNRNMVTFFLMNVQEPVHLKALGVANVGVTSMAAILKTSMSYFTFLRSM
T1 sequence (U5KJY5 1-473 partner): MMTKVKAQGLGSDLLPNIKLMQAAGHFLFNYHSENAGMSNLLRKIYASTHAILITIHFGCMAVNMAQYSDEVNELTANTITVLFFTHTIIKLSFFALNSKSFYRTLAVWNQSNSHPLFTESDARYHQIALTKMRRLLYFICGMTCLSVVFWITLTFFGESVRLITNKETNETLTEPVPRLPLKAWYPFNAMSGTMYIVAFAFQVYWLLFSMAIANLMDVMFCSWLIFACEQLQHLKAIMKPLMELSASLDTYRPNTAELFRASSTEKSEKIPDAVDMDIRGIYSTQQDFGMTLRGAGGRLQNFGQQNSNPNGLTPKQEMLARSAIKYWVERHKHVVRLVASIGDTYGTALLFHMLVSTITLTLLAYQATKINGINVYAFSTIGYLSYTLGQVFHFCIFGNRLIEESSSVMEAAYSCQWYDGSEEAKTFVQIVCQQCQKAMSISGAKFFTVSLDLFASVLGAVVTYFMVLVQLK
Conditions: agonist; 100 uM stimulus, 20 s, -80 mV, Ringer's pH 7.6, with Orco; dose response curve.

For test [2], the target named is T2, AsegOR10 (Agrotis segetum, UniProt U5KJI4).
T2 construct: full-length ORF, 432 aa, pCS2+ cRNA co-injected with Orco (473 aa) cRNA in Xenopus laevis oocytes; with Odorant receptor co-receptor (Orco)
T2 sequence (U5KJI4 1-432): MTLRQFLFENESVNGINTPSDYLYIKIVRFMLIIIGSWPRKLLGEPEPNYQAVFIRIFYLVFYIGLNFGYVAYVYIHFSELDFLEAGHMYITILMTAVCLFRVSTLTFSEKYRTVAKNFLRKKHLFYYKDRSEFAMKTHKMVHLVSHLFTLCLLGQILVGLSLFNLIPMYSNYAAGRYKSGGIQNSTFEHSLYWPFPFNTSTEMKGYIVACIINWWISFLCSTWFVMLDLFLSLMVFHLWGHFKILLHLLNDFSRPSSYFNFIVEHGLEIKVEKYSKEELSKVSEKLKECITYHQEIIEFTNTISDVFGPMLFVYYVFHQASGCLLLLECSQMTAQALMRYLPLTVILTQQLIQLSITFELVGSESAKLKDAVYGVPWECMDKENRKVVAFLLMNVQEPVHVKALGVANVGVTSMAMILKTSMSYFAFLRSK
T2 sequence (U5KJY5 1-473 partner): T1 sequence (U5KJY5 1-473 partner)
Particulars: agonist, 100 uM stimulus, 20 s, -80 mV, Ringer's pH 7.6, with Orco.

Test [3] concerns the target T3, AsegOR8 (Agrotis segetum, UniProt U5KJT2).
T3 construct: with Odorant receptor co-receptor (Orco)
T3 sequence (U5KJT2 1-430): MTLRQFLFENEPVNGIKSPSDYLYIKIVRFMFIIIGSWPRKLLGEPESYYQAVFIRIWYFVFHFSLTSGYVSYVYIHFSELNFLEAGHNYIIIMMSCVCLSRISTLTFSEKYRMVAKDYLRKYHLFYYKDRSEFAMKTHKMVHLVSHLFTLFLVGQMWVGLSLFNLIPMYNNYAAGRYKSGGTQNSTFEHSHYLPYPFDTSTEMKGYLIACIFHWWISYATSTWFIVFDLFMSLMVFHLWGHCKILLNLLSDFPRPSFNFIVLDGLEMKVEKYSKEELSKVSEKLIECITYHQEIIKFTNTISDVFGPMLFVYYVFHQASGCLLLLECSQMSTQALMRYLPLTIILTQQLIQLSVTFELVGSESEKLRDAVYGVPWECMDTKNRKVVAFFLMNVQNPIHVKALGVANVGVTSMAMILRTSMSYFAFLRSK
T3 sequence (U5KJY5 1-473 partner): T1 sequence (U5KJY5 1-473 partner)
Particulars: agonist; 100 uM stimulus, 20 s, -80 mV, Ringer's pH 7.6, with Orco; dose response curve.

Test [4] concerns the target T4, AsegOR1 (Agrotis segetum, UniProt U5KK32).
T4 construct: full-length ORF, 432 aa, pCS2+ cRNA co-injected with Orco (473 aa) cRNA in Xenopus laevis oocytes; with Odorant receptor co-receptor (Orco)
T4 sequence (U5KK32 1-432): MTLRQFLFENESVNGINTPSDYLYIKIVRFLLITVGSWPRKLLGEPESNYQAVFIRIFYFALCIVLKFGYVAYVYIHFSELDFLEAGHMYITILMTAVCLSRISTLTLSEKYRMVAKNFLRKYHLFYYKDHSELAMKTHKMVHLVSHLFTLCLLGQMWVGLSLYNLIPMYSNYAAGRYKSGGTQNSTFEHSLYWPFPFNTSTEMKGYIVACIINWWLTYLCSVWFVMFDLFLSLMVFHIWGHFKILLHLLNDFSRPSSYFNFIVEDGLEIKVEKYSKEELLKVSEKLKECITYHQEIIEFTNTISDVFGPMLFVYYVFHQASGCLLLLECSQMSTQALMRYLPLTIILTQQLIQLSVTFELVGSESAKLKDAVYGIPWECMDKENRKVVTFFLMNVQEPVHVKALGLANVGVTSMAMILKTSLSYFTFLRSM
T4 sequence (U5KJY5 1-473 partner): T1 sequence (U5KJY5 1-473 partner)
Conditions: agonist; 100 uM stimulus, 20 s, -80 mV, Ringer's pH 7.6, with Orco; dose response curve.

The target of test [5] is T5, AsegOR6 (Agrotis segetum, UniProt U5KJY6).
T5 construct: full-length ORF, 430 aa, pCS2+ cRNA co-injected with Orco (473 aa) cRNA in Xenopus laevis oocytes; with Odorant receptor co-receptor (Orco)
T5 sequence (U5KJY6 1-430): T3 sequence (U5KJT2 1-430) with S48P, Q51K, V53I, F60L, S279L, R368K, A425T
T5 sequence (U5KJY5 1-473 partner): T1 sequence (U5KJY5 1-473 partner)
Particulars: agonist; 100 uM stimulus, 20 s, -80 mV, Ringer's pH 7.6, with Orco; dose response curve.

Test [6] concerns the target T6, AsegOR5 (Agrotis segetum, UniProt U5KJI3).
T6 construct: full-length ORF, 443 aa, pCS2+ cRNA co-injected with Orco (473 aa) cRNA in Xenopus laevis oocytes; with Odorant receptor co-receptor (Orco)
T6 sequence (U5KJI3 1-443): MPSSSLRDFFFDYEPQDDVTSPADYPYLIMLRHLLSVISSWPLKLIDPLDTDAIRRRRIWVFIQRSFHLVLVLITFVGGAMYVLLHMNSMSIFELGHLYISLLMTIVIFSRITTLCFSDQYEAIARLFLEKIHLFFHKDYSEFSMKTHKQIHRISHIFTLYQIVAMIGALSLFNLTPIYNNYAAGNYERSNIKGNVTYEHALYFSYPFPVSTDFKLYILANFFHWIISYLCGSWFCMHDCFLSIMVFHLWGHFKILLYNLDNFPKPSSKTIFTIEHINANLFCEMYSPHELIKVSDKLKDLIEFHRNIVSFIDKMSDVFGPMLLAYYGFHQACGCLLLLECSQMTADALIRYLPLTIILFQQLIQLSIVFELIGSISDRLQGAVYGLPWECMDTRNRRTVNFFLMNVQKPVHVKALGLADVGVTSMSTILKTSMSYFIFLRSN
T6 sequence (U5KJY5 1-473 partner): T1 sequence (U5KJY5 1-473 partner)
Particulars: agonist, 100 uM stimulus, 20 s, -80 mV, Ringer's pH 7.6, with Orco.

Test [7] concerns the target T7, AsegOR3 (Agrotis segetum, UniProt U5KJT1).
T7 construct: full-length ORF, 435 aa, pCS2+ cRNA co-injected with Orco (473 aa) cRNA in Xenopus laevis oocytes; with Odorant receptor co-receptor (Orco)
T7 sequence (U5KJT1 1-435): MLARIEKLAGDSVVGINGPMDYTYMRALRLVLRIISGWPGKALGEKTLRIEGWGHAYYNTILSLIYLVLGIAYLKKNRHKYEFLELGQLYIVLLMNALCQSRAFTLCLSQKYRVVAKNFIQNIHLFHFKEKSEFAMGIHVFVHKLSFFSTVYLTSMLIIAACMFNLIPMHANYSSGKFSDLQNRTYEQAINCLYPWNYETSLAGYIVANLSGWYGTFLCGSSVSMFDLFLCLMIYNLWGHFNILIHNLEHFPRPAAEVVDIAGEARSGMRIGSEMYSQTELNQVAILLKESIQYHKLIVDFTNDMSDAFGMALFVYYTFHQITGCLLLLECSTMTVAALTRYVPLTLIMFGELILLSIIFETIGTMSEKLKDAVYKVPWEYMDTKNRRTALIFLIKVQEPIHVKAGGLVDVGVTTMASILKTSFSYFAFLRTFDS
T7 sequence (U5KJY5 1-473 partner): T1 sequence (U5KJY5 1-473 partner)
Particulars: agonist; 100 uM stimulus, 20 s, -80 mV, Ringer's pH 7.6, with Orco.

The target of test [8] is T8, AsegOR7 (Agrotis segetum, UniProt U5KK33).
T8 construct: with Odorant receptor co-receptor (Orco)
T8 sequence (U5KK33 1-432): T4 sequence (U5KK32 1-432) with L31M, I33V, S101F, I103V, M114T, H131R, L134Y, I376V, K383T, E384K
T8 sequence (U5KJY5 1-473 partner): T1 sequence (U5KJY5 1-473 partner)
Particulars: agonist; 100 uM stimulus, 20 s, -80 mV, Ringer's pH 7.6, with Orco.

The target in test [9] is T9, AsegOR4 (Agrotis segetum, UniProt U5KJQ7).
T9 construct: full-length ORF, 424 aa, pCS2+ cRNA co-injected with Orco (473 aa) cRNA in Xenopus laevis oocytes; with Odorant receptor co-receptor (Orco)
T9 sequence (U5KJQ7 1-424): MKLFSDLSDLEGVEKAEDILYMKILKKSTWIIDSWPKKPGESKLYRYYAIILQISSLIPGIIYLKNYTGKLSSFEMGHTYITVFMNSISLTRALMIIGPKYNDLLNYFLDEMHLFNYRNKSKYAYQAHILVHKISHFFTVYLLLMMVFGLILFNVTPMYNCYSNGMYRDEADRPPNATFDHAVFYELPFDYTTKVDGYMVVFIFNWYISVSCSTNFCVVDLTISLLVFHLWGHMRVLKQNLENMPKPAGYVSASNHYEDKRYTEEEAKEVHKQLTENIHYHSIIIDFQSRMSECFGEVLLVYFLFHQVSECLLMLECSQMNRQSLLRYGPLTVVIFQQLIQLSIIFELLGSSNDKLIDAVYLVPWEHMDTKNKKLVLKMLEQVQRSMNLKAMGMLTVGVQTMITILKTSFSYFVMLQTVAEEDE
T9 sequence (U5KJY5 1-473 partner): T1 sequence (U5KJY5 1-473 partner)
Particulars: agonist; 100 uM stimulus, 20 s, -80 mV, Ringer's pH 7.6, with Orco; dose response curve.

Where a chain is given by its changes, count along the chain named.

In the case of `CCCC/C=C\CCCCOC(C)=O` [Z5-10:OAc], the “two-electrode voltage clamp, Xenopus oocytes, inward current” value (from here on “two-electrode voltage clamp”) is “co-expressing AsegOR9 (Cluster I) and Aseg\Orco robustly and specifically responded to Z5-10:OAc” in [1]; “AsegOR10 responded to Z9-14:OAc and Z5-10:OAc but with low sensitivity” in test [2] (dose response curve); “Different sensitivities of the six paralogues to the main pheromone component Z5-10:OAc” in test [3]; “Oocytes co-expressing AsegOR1 and Aseg\Orco also responded to Z5-10:OAc” in test [4].

On to `CCCC/C=C\CCCCO` [Z5-10:OH], for which the “two-electrode voltage clamp” value in [5] was “oocytes that showed the strongest response to another antagonist Z5-10:OH”; in test [3], “Two of them (AsegOR6 and AsegOR8) showed strong responses to Z5-10:OH (Figure 5B)”.

With `CCCC/C=C\CCCCCCOC(C)=O` [Z7-12:OAc], the “two-electrode voltage clamp” value in test [6] is “a much smaller response to Z7-12:OAc and marginal responses to other tested compounds”; in [7] it was “albeit with Z7-12:OAc standing out as the most active one”; in [8], “receptors for Z8-12:OAc and Z7-12:OAc (AsegOR1 and AsegOR7)”; in test [9], “AsegOR4 (Cluster IV) was specifically responsive to the pheromone component Z7-12:OAc”.

With `CCC/C=C\CCCCCCCOC(C)=O` [Z8-12:OAc], the “two-electrode voltage clamp” value in test [8] is “receptors for Z8-12:OAc and Z7-12:OAc (AsegOR1 and AsegOR7)”.

Consider `CCCC/C=C\CCCCCCCCOC(C)=O` [Z9-14:OAc], for which the “two-electrode voltage clamp” value was “AsegOR5 (Cluster II) showed the largest response to Z9-14:OAc” in [6] (dose response curve); “AsegOR10 responded to Z9-14:OAc and Z5-10:OAc but with low sensitivity” in [2].
